The record followed here is PubChem BioAssay (NCI).

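The compound was tested at five concentrations on cells cultured in 96-well plates, with a 48-hour exposure period. GI50: concentration for 50% inhibition of growth. TGI: concentration producing complete growth inhibition.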 A value given as a limit tells only on which side of the number the result lay.

Some test systems named below: RPMI-8226 leukemia; K-562 leukemia; SNB-75 CNS; A498 renal; IGROV1 ovarian; SF-268 CNS; SK-MEL-28 melanoma; HCC-2998 colon; SK-MEL-5 melanoma; RXF 393 renal.
Holding throughout (assay): NCI tumour cell line growth inhibition, 48 h

In the case of `C/C(CC(=O)CCC(=O)Nc1cccc(C(F)(F)F)c1)=N\NC(=O)NN`, the TGI with RPMI-8226 leukemia, with K-562 leukemia, with SNB-75 CNS, in the experiment on A498 renal, in the experiment on IGROV1 ovarian and in the experiment with SF-268 CNS was more than 100 µM each time. Further, the TGI with SK-MEL-28 melanoma, with HCC-2998 colon and in the experiment with SK-MEL-5 melanoma was more than 100 µM throughout.

For `Clc1cc2nsnc2c(Cl)n1`, the TGI with RPMI-8226 leukemia was 62.5 µM; with K-562 leukemia it was 51.9 µM; in the experiment on A498 renal, more than 100 µM; with IGROV1 ovarian it was 86.3 µM; in the experiment on SF-268 CNS, 79.4 µM; in the experiment with SK-MEL-28 melanoma, 44.4 µM. The TGI is more than 100 µM with HCC-2998 colon and 32.7 µM in the experiment with SK-MEL-5 melanoma.

As to `N#CC(c1ccc(Cl)cc1)c1cccc(C(C#N)c2ccc(Cl)cc2)n1` (stereo unspecified), the TGI in the experiment with RPMI-8226 leukemia is more than 100 µM; in the experiment on K-562 leukemia, more than 100 µM; in the experiment with SNB-75 CNS it was 79.4 µM; with A498 renal, 10.9 µM; in the experiment on SF-268 CNS, more than 100 µM; in the experiment with SK-MEL-28 melanoma, more than 100 µM. Also, the TGI in the experiment with HCC-2998 colon is more than 100 µM.

As for `COc1ccc2c(C3=C(c4cn(C)c5ccccc45)C(=O)NC3=O)cn(C)c2c1`, the GI50 with RPMI-8226 leukemia was 0.11 µM; in the experiment on K-562 leukemia, 0.101 µM; in the experiment with SNB-75 CNS, 0.0567 µM; in the experiment on A498 renal, 0.054 µM; with IGROV1 ovarian it was 0.147 µM; in the experiment with SF-268 CNS, 0.292 µM. In addition, the GI50 in the experiment on SK-MEL-28 melanoma was 0.166 µM; with HCC-2998 colon, 0.41 µM; with SK-MEL-5 melanoma it was 0.0899 µM. Further, the TGI in the experiment with RPMI-8226 leukemia is more than 25 µM; in the experiment on K-562 leukemia, more than 25 µM; with SNB-75 CNS it was more than 25 µM; in the experiment on A498 renal, 0.215 µM; with IGROV1 ovarian, more than 25 µM; in the experiment with SF-268 CNS, more than 25 µM. In addition, the TGI is more than 25 µM in the experiment with SK-MEL-28 melanoma, more than 25 µM in the experiment with HCC-2998 colon and 2.57 µM in the experiment on SK-MEL-5 melanoma.

`CC(=O)NNc1nc(C)c(C(=O)NNC(=O)C(=O)Nc2c(Cl)cc([N+](=O)[O-])cc2Cl)s1`: the TGI with RPMI-8226 leukemia is more than 100 µM; in the experiment on K-562 leukemia, more than 100 µM; in the experiment on A498 renal, 66.3 µM; in the experiment on IGROV1 ovarian it was more than 100 µM; in the experiment on SF-268 CNS, 86.1 µM; in the experiment with SK-MEL-28 melanoma it was 69.8 µM. In addition, the TGI in the experiment with HCC-2998 colon and with SK-MEL-5 melanoma was more than 100 µM in each case.

As for `CC1(C)CCc2c(c3c(c4c(=O)c(O)c(-c5ccc(O)cc5)oc24)OC(C)(C)CC3)O1`, the GI50 in the experiment with RPMI-8226 leukemia was more than 100 µM; in the experiment on K-562 leukemia it was more than 100 µM; with SNB-75 CNS, 19.5 µM; with IGROV1 ovarian, more than 100 µM; in the experiment on SF-268 CNS it was 30.5 µM; in the experiment with SK-MEL-28 melanoma it was more than 100 µM. For the same compound, the GI50 in the experiment on HCC-2998 colon and in the experiment with SK-MEL-5 melanoma was more than 100 µM in each case. In addition, the TGI in the experiment on RPMI-8226 leukemia was more than 100 µM; in the experiment on K-562 leukemia, more than 100 µM; in the experiment on SNB-75 CNS, 41.9 µM; in the experiment on IGROV1 ovarian, more than 100 µM; in the experiment on SF-268 CNS it was more than 100 µM; in the experiment with SK-MEL-28 melanoma, more than 100 µM. Further, the TGI in the experiment with HCC-2998 colon and in the experiment with SK-MEL-5 melanoma was more than 100 µM each time.

Consider `COc1cc(Cc2cnc(/N=C3\C(=O)N(CN4CCN(c5c(F)cc6c(=O)c(C(=O)O)cn(C7CC7)c6c5OC)CC4C)c4ccc(F)cc43)nc2N)cc(OC)c1OC` (stereo unspecified), for which the GI50 in the experiment on RPMI-8226 leukemia is 2.31 µM; in the experiment with K-562 leukemia it was 6.41 µM; in the experiment with A498 renal, 26 µM; in the experiment on RXF 393 renal, 16 µM; with IGROV1 ovarian, 25.1 µM; in the experiment with SF-268 CNS, 18.2 µM. For the same compound, the GI50 in the experiment with HCC-2998 colon was 12.6 µM; in the experiment on SK-MEL-5 melanoma, 18.3 µM. For the same compound, the TGI in the experiment with RPMI-8226 leukemia was 8.24 µM; with K-562 leukemia, more than 100 µM; in the experiment with A498 renal, 49.7 µM; in the experiment on RXF 393 renal it was 49.1 µM; in the experiment on IGROV1 ovarian it was more than 100 µM; in the experiment with SF-268 CNS, 57.7 µM. For the same compound, the TGI in the experiment on HCC-2998 colon amounted to 26.1 µM; in the experiment on SK-MEL-5 melanoma it was 35.2 µM.

Turning to `Cc1ccc2c(=O)cc(-c3ccc(F)cc3)[nH]c2n1`, the TGI is 95.1 µM in the experiment on RPMI-8226 leukemia; 83 µM in the experiment with K-562 leukemia; 49.6 µM in the experiment on SNB-75 CNS; 66.6 µM in the experiment on A498 renal; more than 100 µM in the experiment with IGROV1 ovarian; more than 100 µM in the experiment on SF-268 CNS. Also, the TGI in the experiment with SK-MEL-28 melanoma, with HCC-2998 colon and with SK-MEL-5 melanoma was more than 100 µM throughout. Besides, in the experiment with SK-MEL-5 melanoma, the GI50 was 31.3 µM.

As for `Cc1nc2ccccc2c(=O)n1-c1ccccc1I`, the TGI in the experiment with RPMI-8226 leukemia, in the experiment on K-562 leukemia, in the experiment on SNB-75 CNS, with A498 renal, in the experiment with IGROV1 ovarian and in the experiment on SF-268 CNS was more than 100 µM in each case. The TGI with SK-MEL-28 melanoma, in the experiment with HCC-2998 colon and with SK-MEL-5 melanoma was more than 100 µM each time.

Turning to `CN/N=C(/Cc1occc(=O)c1O)C(=O)Nc1ccccc1C`, the TGI with RPMI-8226 leukemia, with K-562 leukemia, in the experiment with A498 renal, in the experiment with IGROV1 ovarian, in the experiment with SF-268 CNS and with SK-MEL-28 melanoma was more than 100 µM in each case. Moreover, the TGI in the experiment with HCC-2998 colon and in the experiment with SK-MEL-5 melanoma was more than 100 µM throughout.

Consider `Cc1ccc(NC2=C(Cl)C(=O)N(Cc3ccccc3)C2=O)cc1O`, for which the GI50 with RPMI-8226 leukemia was 9.26 µM; in the experiment on K-562 leukemia, 17.8 µM; in the experiment with A498 renal it was 7.18 µM; in the experiment with RXF 393 renal it was 52 µM; in the experiment on IGROV1 ovarian, 35.4 µM; in the experiment on SF-268 CNS it was 31.7 µM. Further, the GI50 in the experiment with SK-MEL-28 melanoma was 52.8 µM; with SK-MEL-5 melanoma, 15.5 µM. Besides, the TGI is 47.5 µM with RPMI-8226 leukemia; more than 100 µM in the experiment on K-562 leukemia; 33.1 µM in the experiment with A498 renal; more than 100 µM with RXF 393 renal; more than 100 µM with IGROV1 ovarian; more than 100 µM in the experiment on SF-268 CNS. Also, the TGI is more than 100 µM with SK-MEL-28 melanoma and 37.5 µM in the experiment with SK-MEL-5 melanoma.

For the compound `Cn1c2ccccc2c2c(Nc3ccccc3)c3ccccc3nc21`, the GI50 was 3.34 µM in the experiment on RPMI-8226 leukemia; 5.11 µM in the experiment on K-562 leukemia; 26.5 µM with SNB-75 CNS; 61.3 µM in the experiment with IGROV1 ovarian; 19.2 µM in the experiment with SF-268 CNS; 17 µM in the experiment with SK-MEL-28 melanoma. Also, the GI50 in the experiment with HCC-2998 colon was 40.9 µM; with SK-MEL-5 melanoma it was 13.7 µM. The TGI was 30.5 µM with RPMI-8226 leukemia; more than 100 µM with K-562 leukemia; more than 100 µM with SNB-75 CNS; more than 100 µM in the experiment with IGROV1 ovarian; 53 µM in the experiment on SF-268 CNS; 49.6 µM with SK-MEL-28 melanoma. Further, the TGI in the experiment on HCC-2998 colon was more than 100 µM; in the experiment on SK-MEL-5 melanoma, 28.1 µM.
